In ChEMBL document CHEMBL1201862, “PubChem BioAssay data set” (2004):
Blank lines part the entries; values can stand above or below the molecule they belong to. Calls of active or inactive are those of the source.

Tests used:
[1] = target: T1, Apoptotic protease-activating factor 1 (Homo sapiens, UniProt O14727); type: functional
T1 sequence (O14727 whole entry): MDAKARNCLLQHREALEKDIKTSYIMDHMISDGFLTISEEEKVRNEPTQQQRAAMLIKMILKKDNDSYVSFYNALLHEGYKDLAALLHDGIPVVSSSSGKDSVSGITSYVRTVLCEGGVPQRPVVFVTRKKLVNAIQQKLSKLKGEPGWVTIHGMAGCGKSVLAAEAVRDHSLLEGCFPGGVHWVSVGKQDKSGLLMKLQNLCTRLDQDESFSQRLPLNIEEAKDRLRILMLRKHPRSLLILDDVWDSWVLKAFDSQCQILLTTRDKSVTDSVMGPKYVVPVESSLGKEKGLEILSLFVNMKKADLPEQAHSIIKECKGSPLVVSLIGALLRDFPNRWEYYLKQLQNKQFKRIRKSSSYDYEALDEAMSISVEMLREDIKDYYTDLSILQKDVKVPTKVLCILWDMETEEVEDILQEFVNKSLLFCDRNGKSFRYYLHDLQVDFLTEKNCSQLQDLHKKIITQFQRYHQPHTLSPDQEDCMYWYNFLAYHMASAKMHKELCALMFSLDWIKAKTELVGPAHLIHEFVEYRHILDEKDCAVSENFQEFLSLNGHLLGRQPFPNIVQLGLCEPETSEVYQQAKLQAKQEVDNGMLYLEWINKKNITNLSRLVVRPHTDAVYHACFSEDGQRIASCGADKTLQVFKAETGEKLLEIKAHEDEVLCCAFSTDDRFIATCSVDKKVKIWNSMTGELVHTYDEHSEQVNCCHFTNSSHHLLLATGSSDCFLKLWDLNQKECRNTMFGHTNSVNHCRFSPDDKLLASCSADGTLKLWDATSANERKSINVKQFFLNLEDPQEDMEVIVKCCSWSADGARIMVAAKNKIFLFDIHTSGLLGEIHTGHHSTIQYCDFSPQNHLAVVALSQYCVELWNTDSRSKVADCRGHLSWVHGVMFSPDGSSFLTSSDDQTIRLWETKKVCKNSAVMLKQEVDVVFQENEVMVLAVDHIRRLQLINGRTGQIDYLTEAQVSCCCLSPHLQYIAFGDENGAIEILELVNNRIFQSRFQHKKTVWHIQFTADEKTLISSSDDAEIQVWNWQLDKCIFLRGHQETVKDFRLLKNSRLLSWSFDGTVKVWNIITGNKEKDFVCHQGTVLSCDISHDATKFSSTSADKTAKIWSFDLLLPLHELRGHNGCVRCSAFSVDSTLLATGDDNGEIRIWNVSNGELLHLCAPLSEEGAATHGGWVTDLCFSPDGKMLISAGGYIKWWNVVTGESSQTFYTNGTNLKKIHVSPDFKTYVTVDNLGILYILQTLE

Escherichia coli = experiment: microbe, parasite or virus in culture
HEK293 = experiment: EBV LMP1 TES2 canonical NF-kB signalling blockers – cell-based, HEK293, luciferase, cherry-pick, dose response (AID 588343); type: functional; conditions: Homo sapiens
[2] = target: Dual specificity tyrosine-phosphorylation-regulated kinase 1A (Rattus norvegicus, UniProt Q63470); type: biochemical, Homo sapiens
Vero = experiment: viability of Vero cells under compound – cytotoxicity control for flavivirus capping enzyme inhibitors (AID 588742); type: functional; conditions: Chlorocebus sabaeus
[3] = NIH-3T3 fibroblast cytotoxicity, dose response, cytotoxicity control, cell-based, fluorescence, Alamar Blue, secondary assay (AID 2327); type: functional;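 note: NIH-3T3 mouse fibroblasts cultured with fluconazole at 8 µg/mL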
[4] = fluconazole-exposed Candida albicans growth modulators – fluorescence, retest, confirmation (AID 2467); type: functional, cell-based
Caspase-3 = target: T2, Caspase-3 (Homo sapiens, UniProt P42574); type: functional;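 note: Dose-response selectivity test against caspase-3 for candidate inhibitors of sentrin-specific proteases (SENPs)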
T2 sequence (P42574 whole entry): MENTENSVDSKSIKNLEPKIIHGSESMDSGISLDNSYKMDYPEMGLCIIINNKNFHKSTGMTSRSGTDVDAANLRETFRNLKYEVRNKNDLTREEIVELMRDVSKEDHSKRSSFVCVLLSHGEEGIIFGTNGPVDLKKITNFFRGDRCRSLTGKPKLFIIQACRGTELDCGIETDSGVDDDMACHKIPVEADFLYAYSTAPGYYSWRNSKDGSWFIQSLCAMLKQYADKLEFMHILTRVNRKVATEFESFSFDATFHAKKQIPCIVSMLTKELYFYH

[5] = target: T3, Sentrin-specific protease 7 (Homo sapiens, UniProt Q9BQF6); type: functional;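 note: Luminescence-based dose-response confirmation of ultra-high-throughput screening hits, measuring inhibition of SENP7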
T3 sequence (Q9BQF6 whole entry): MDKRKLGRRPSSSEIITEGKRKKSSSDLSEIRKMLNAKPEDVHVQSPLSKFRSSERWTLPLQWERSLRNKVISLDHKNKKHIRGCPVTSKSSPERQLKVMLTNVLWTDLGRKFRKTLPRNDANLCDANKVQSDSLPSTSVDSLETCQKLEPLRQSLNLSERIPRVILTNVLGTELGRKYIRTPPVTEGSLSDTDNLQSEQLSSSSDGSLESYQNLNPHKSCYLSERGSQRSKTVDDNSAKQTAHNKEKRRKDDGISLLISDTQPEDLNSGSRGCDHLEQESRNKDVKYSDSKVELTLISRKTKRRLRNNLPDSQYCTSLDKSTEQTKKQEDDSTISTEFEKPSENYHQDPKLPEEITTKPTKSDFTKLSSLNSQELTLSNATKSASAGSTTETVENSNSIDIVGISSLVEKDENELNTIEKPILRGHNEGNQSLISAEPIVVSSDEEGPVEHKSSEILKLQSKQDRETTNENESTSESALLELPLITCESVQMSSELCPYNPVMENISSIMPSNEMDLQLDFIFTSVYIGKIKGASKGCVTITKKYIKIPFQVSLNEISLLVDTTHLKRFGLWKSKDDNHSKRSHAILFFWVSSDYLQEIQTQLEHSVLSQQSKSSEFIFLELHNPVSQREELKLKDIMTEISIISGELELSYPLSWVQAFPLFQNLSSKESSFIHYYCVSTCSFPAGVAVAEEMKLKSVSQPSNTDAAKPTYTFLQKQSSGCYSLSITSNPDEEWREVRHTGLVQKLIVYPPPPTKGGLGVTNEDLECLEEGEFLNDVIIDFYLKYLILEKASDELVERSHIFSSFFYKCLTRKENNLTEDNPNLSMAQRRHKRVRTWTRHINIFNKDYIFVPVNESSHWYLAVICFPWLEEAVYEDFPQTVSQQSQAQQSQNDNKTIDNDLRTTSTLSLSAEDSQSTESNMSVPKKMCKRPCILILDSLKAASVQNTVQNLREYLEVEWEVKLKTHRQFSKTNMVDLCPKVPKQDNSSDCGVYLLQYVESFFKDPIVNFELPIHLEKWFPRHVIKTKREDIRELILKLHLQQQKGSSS

[6] = target: T4, Sentrin-specific protease 6 (Homo sapiens, UniProt Q9GZR1); type: functional;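 note: Luminescence-based dose-response confirmatory assay of SENP6 inhibition, following up an ultra-high-throughput screen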
T4 sequence (Q9GZR1 whole entry): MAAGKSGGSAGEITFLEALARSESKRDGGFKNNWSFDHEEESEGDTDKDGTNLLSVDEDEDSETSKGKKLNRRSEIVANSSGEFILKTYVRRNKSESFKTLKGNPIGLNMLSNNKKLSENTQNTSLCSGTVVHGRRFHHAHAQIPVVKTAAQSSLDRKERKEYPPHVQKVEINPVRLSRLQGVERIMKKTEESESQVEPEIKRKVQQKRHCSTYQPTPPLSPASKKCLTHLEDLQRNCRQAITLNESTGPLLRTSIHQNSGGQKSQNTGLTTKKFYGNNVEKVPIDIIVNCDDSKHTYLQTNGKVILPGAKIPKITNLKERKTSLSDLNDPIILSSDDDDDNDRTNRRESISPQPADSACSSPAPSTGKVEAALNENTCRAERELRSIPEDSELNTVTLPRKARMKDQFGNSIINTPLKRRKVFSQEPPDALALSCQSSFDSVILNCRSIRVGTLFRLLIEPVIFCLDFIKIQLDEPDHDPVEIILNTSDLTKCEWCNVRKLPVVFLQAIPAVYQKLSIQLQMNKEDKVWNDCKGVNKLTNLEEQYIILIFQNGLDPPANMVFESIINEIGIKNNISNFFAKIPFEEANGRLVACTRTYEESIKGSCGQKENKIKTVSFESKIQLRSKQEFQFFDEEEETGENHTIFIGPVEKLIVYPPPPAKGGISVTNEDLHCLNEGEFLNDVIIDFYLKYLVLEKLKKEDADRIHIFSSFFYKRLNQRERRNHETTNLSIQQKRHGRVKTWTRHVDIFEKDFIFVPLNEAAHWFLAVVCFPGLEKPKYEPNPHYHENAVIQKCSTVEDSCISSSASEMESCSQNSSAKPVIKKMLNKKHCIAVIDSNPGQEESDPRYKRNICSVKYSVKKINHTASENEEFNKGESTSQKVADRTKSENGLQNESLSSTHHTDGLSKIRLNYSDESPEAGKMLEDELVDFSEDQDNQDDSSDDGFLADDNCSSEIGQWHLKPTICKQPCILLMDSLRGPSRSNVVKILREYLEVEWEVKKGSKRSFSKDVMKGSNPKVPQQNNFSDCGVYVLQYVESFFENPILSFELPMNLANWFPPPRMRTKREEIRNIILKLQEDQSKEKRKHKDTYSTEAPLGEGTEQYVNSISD

[7] = target: T5, Sentrin-specific protease 8 (Homo sapiens, UniProt Q96LD8); type: functional;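 note: luminescence read-out of SENP8 inhibition, dose-response confirmation following an ultra-high-throughput screen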
T5 sequence (Q96LD8 whole entry): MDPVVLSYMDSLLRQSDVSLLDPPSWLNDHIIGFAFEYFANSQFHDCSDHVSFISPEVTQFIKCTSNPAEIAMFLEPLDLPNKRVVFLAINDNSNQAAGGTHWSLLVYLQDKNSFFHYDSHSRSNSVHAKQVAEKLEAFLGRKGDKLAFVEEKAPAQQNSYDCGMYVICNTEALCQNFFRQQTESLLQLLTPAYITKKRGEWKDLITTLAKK

Leucine aminopeptidase = target: T6, Leucine aminopeptidase (Plasmodium falciparum 3D7, UniProt Q8IL11); experiment: P. falciparum M17LAP inhibitors, primary screen, biochemical, fluorogenic H-Leu-NHMec substrate, 1536-well (AID 1619); type: functional
T6 sequence (Q8IL11 whole entry): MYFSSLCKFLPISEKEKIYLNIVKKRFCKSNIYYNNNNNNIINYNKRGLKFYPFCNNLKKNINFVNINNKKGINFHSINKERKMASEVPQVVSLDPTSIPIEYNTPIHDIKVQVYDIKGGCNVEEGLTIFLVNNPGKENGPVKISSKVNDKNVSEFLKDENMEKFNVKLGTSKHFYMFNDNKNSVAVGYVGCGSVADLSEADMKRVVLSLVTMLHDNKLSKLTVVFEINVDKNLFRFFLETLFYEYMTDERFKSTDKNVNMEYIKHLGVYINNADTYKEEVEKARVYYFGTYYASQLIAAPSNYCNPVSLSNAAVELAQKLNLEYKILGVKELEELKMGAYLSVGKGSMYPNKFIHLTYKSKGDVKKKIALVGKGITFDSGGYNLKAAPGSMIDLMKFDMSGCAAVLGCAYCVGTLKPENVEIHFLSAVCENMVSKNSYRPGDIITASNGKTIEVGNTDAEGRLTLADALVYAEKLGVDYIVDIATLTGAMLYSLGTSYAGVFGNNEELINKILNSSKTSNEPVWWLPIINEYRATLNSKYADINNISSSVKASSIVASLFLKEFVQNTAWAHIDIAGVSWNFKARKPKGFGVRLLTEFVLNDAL

[8] = target: T7, RNA-binding protein pos-1 (Caenorhabditis elegans, UniProt G5EF15); experiment: disruptors of C. elegans POS-1 RNA interaction – biochemical, fluorescence polarization, dose response (AID 1964);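 note: purified POS-1 fused to maltose binding protein made in E. coli; potency of compounds blocking POS-1 binding to fluorescent RNA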
T7 sequence (G5EF15 whole entry): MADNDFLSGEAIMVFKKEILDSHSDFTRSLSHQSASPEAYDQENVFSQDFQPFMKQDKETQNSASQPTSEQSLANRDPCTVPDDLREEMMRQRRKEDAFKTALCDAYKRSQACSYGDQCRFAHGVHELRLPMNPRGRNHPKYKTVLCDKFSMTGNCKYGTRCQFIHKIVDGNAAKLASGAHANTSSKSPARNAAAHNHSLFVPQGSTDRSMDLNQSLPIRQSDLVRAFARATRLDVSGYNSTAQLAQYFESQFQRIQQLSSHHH

[9] = target: T8, Zinc finger protein mex-5 (Caenorhabditis elegans, UniProt Q9XUB2); experiment: potency of MEX-5 RNA-binding blockers – biochemical, C. elegans, fluorescence polarization, dose response (AID 1960)
T8 sequence (Q9XUB2 whole entry): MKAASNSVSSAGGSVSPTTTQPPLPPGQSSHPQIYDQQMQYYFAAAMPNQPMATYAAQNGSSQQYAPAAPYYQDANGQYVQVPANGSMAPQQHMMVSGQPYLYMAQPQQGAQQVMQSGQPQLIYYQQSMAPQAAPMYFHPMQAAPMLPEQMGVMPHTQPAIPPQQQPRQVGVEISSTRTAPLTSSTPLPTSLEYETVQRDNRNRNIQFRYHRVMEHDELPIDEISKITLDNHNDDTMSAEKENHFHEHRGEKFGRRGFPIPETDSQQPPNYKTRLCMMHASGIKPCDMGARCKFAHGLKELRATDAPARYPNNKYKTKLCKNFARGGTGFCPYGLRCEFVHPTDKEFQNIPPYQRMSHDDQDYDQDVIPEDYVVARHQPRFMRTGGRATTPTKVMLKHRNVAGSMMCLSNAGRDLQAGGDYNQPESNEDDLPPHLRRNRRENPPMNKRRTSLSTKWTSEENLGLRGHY

SMILES: Clc1ccccc1-c1nn2c(-c3ccncc3)nnc2s1
- IC50 [1]: 19.1 µM (active)
- AC50 (Escherichia coli): 23.3 µM (active)

SMILES: O=C(O)/C=C/c1ccc2ccccc2n1
- AC50 (HEK293): 47.7 µM (active)

- AC50 [2]: 0.235 µM (active)
SMILES: Cc1nc(COc2ccccc2Cl)sc1-c1ccnc(N)n1

- AC50 [2]: 7.72 µM (active)
SMILES: COc1cc(/C=C2\SC(=O)NC2=O)ccc1Oc1ccc([N+](=O)[O-])cc1[N+](=O)[O-]
- CC50 (Vero): > 40 µM (active)

SMILES: CCCCCc1ccc(-c2ccc(/C=C/C(=O)O)cc2)nc1
- EC50 [3]: > 160 µM (inconclusive)
- EC50 [4]: 2.03 µM (active)
- IC50 (Caspase-3): 35.4 µM (active)
- IC50 [5]: 6.37 µM (active)
- IC50 [6]: 11.2 µM (active)
- IC50 [7]: 8.8 µM (active)
- AC50 (HEK293): 20.8 µM (active)

SMILES: CCn1c2ccccc2c2cc(/C=N/n3c(C)nnc3C)ccc21
- AC50 (HEK293): 34.2 µM (active)

- IC50 (Leucine aminopeptidase): 48.5 µM (active)
- EC50 [8]: > 300 µM (not active)
- EC50 [9]: 23.9 µM (active)
- AC50 [2]: 12 µM (active)
SMILES: COc1ccc(Nc2ncnc3nc[nH]c23)cc1OC
